Data reported in patent publication US4239780A, “Phospholipase A2 inhibition” (The Upjohn Company, priority 1979, dated 1980).
pIC50: −log10 of the molar value. Where a name gives a salt, the structure may show the parent alone.

Columns and labels:
[1] = biological target: T1, HOG PANCREAS PHOSPHOLIPASE A2 (Sus scrofa, UniProt P00592); assay: coupled phospholipase A2 / soybean lipoxygenase oxygen consumption assay, hog pancreas enzyme; format: biochemical; settings: estimated I50 calculated from a partial inhibition value, pH 8.5, 37° C.
T1 construct: from tissue; host or cells: hog pancreas

[2] = biological target: T2, HUMAN PLATELET PHOSPHOLIPASE A2 (Homo sapiens, UniProt P47712); assay: inhibition of collagen-induced aggregation of human platelets; format: cell-based; settings: human platelet rich plasma, read-out: I50 collagen (converted)
T2 construct: Human blood was drawn from an antecubital vein into 3.8% sodium citrate; endogenous in cells; host or cells: human platelets in citrated plasma (PRP)
T2 sequence (P47712 1-749): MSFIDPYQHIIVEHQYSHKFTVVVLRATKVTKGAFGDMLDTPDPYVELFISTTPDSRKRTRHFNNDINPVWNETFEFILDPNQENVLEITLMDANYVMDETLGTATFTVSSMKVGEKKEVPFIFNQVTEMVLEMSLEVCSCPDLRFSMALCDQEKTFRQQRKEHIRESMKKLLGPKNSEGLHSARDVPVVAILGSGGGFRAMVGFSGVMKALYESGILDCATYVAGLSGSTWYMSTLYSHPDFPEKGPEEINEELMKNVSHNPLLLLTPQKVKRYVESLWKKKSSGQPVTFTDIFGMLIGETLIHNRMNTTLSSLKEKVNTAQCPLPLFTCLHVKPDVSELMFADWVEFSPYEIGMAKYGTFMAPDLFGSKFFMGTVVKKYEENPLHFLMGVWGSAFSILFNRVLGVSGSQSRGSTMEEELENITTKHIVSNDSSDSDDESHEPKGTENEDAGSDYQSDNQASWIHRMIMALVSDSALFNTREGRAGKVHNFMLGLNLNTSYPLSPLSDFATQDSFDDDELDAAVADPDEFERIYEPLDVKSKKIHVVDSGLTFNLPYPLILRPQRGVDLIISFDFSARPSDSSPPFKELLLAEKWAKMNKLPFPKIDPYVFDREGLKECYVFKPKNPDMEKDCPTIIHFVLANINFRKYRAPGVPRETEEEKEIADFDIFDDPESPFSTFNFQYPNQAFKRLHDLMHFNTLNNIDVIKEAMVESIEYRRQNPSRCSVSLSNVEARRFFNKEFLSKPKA
Protocol: The compounds of the present invention were tested for their ability to inhibit collagen-induced aggregation of platelets at 100 μg. per ml. or less. The compounds that were active against collagen-induced aggregation were tested at the I50 dose against arachidonic acid-induced aggregation. Compounds that inhibited collagen-induced aggregation, but not arachidonic acid-induced aggregation, were reported as active phospholipase A2 inhibitors.
The test was run as follows. Human blood was drawn from an antecubital vein into 3.8% sodium citrate with the final citrate concentration being 0.38%. The blood was transferred to plastic centrifuge tubes and centrifuged at 200×g for 10 min. This yielded […] (PRP). This PRP was allowed to stand for 30 min. for testing at which point it was tested against 400 μg. per ml. of arachidonic acid. […] If the platelets aggregated to arachidonic acid, a dose of collagen that gave a substantial irreversible aggregation (approximately 60-80% transmission) was established. It was then attempted to block the response of collagen with 10 μg. per ml. of indomethacin. […] The ID50 for all unknown compounds was then established. Most of the compounds were tested at rather high concentrations and it was often necessary to place the compound in ethanol into the aggregation cuvet and evaporate the ethanol before testing.
Those that were reported as active were tested at the ID50 dose against 400 μg per ml. of arachidonic acid. […] The compounds are shown to inhibit phospholipase A2 from humans at low dosages.

UV induced erythema = UV induced erythema on the skin of guinea pigs; format: in vivo, guinea pig; settings: for erythema score, 1 hour / erythema score, 2 hours / erythema score, 3 hours / erythema score, 4 hours / erythema score, 24 hours: aggregate score for 3 animals; for erythema score, (After 4 hours) Total Points / erythema score, (After 24 hours) Total Points: aggregate for 3 animals
Protocol: Some of the compounds of this invention were tested in vivo for their ability to inhibit the effects of UV induced erythema on the skin of guinea pigs. This is an example of an inflammatory process fulfilling the four pathological requirements of "rubor, calor, dolor, and tumor" i.e., reddening, heat, pain, and edematious swelling in the skin. Administration of the compounds of this invention to guinea pigs whose skin was subsequently exposed to ultraviolet light markedly retarded and in some cases eliminated altogether this inflammatory process. Administration of the compounds of this invention was performed both interparenterally and subcutaneously with equivalent results, thereby eliminating any possiblity of reduction in erthyma due to the so called "counter irritant" effect on the serosal soft surface of the gut.
The test was carried out as follows: Guinea pigs of the Hartley strain ranging in weight from 250 to 750 gm. were clipped with coarse and fine clippers to remove as much hair as possible from the back or abdomen. They were then treated with a commercial depilatory for six to seven min. after which they were washed with warm water. The animals were then injected I.P. or subcutaneously with solutions or suspensions of the test compounds made up at 0.02 molar concentrations. The dose was 0.3 ml. per 100 gm. of body weight. A control (untreated) group was also maintained. The animals were then held for 30 min. before being exposed as rapidly as possible to ultra-violet light using a Kromayer lamp for 30 sec. A scoring system was developed to quantitate the erythema. The scoring was from 0 to 5 and is described as follows:
0=no apparent reddening of the skin
0.5=some slight reddening, without a definite border
1.0=a discrete pink circle with a definite border
2.0=a discrete circle of redness with a definite border more intense than 1.0
3.0=same circle with still greater intensity
4.0=same circle with a near maximal response but without any raising of the erythematous spot above the level of the surrounding skin
5.0=a raised edematous circle with the redness at maximal intensity
The animals were scored at hourly intervals for the first four hours. The erythema reached a maximum at this time in the control animals. The major difference between results at 4 hr. and those at 24 is the developement of edema and this occurred in some of the animals treated with phospholipase inhibitors without erythema being present. The results of this test are shown in tabular form in Tables VI and VII. The aggregate scores of the animals treated with the designated compounds are recorded at hourly intervals and compared with the control (untreated) scores. As shown by the tables, the method of this invention markedly retarded UV-induced erythema.

[3] = biological target: SNAKE VENOM PHOSPHOLIPASE A2; assay: coupled phospholipase A2 / soybean lipoxygenase oxygen consumption assay, snake venom enzyme; format: biochemical; settings: estimated I50 calculated from a partial inhibition value, pH 8.5, 37° C.
[4] = intraperitoneal, 23-25.2 mg/kg given 30 min. before UV, control 12
[5] = intraperitoneal, 23-25.2 mg/kg given 30 min. before UV, control 18
[6] = intraperitoneal, 23-25.2 mg/kg given 30 min. before UV, control 24
[7] = intraperitoneal, 23-25.2 mg/kg given 30 min. before UV, control 30
[8] = intraperitoneal, 23-25.2 mg/kg given 30 min. before UV, control 50
[9] = intraperitoneal, 23-25.2 mg/kg, control 78
[10] = intraperitoneal, 23-25.2 mg/kg, control 128
[11] = subcutaneous, 60.9-66.1 mg/kg given 30 min. before UV, control 17
[12] = subcutaneous, 60.9-66.1 mg/kg given 30 min. before UV, control 23
[13] = subcutaneous, 60.9-66.1 mg/kg given 30 min. before UV, control 29
[14] = subcutaneous, 60.9-66.1 mg/kg given 30 min. before UV, control 34
[15] = subcutaneous, 60.9-66.1 mg/kg given 30 min. before UV, control 56
[16] = subcutaneous, 60.9-66.1 mg/kg, control 103
[17] = subcutaneous, 60.9-66.1 mg/kg, control 158

T1 sequence (P00592 23-146): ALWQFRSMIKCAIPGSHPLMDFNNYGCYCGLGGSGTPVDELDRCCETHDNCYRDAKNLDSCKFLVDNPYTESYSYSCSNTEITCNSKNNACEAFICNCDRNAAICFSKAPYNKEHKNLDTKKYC

Structure (SMILES)	pIC50 [1]	IC50 [2]	erythema score, 1 hour (UV induced erythema; [4])	erythema score, 2 hours (UV induced erythema; [5])	erythema score, 3 hours (UV induced erythema; [6])	erythema score, 4 hours (UV induced erythema; [7])	erythema score, 24 hours (UV induced erythema; [8])	erythema score, (After 4 hours) Total Points (UV induced erythema; [9])	erythema score, (After 24 hours) Total Points (UV induced erythema; [10])	erythema score, 1 hour (UV induced erythema; [11])	erythema score, 2 hours (UV induced erythema; [12])	erythema score, 3 hours (UV induced erythema; [13])	erythema score, 4 hours (UV induced erythema; [14])	erythema score, 24 hours (UV induced erythema; [15])	erythema score, (After 4 hours) Total Points (UV induced erythema; [16])	erythema score, (After 24 hours) Total Points (UV induced erythema; [17])	pIC50 [3]
CO[C@]1(c2ccc(C)cc2)CC[C@H](NCCCC(=O)c2ccc(F)cc2)CC1 [D, Butyrophenone, 4'-fluoro-4-[(c-4-methoxy-4-p-tolyl-r-1-cyclohexyl)amino]-, hydrochloride]	4.83	261 µM	–	–	–	–	–	–	–	–	–	–	–	–	–	–	–
O=C(CCCN[C@H]1CC[C@](CO)(c2ccc(Cl)cc2)CC1)c1ccc(F)cc1 [G, Butyrophenone, 4-[[t-4-(p-chlorophenyl)-c-4-(hydroxymethyl)-r-1-cyclo-hexyl]amino]-4'fluoro-, hydrochloride]	4.26	74.3 µM	–	–	–	–	–	–	–	12	13	9	13	52	46	98	–
O=C(CCCNC1CCC(c2ccc(Cl)cc2)CC1)c1ccc(F)cc1 (stereo not drawn) [H, Butyrophenone, 4[[4-(p-chlorophenyl)cyclohexyl]-amino]-4'-fluoro-, hydro-chloride]	–	–	–	–	–	–	–	–	–	6	6	7	9	52	28	78	–
O=C(CCCN[C@H]1CC[C@](CO)(c2ccccc2)CC1)c1ccc(F)cc1 [I, Butyropehnone, 4'-fluoro-4-[[4-(hydroxymethyl)-4-phenylcyclohexyl]amino]- cis-, hydrochloride]	4.61	–	–	–	–	–	–	–	–	2	4	6	7	40	18	58	3.66

More lines, in order of rising pIC50 [1], values ahead:

pIC50 [1]	IC50 [2]	Structure (SMILES)	erythema score, 1 hour (UV induced erythema; [4])	erythema score, 2 hours (UV induced erythema; [5])	erythema score, 3 hours (UV induced erythema; [6])	erythema score, 4 hours (UV induced erythema; [7])	erythema score, 24 hours (UV induced erythema; [8])	erythema score, (After 4 hours) Total Points (UV induced erythema; [9])	erythema score, (After 24 hours) Total Points (UV induced erythema; [10])	erythema score, 1 hour (UV induced erythema; [11])	erythema score, 2 hours (UV induced erythema; [12])	erythema score, 3 hours (UV induced erythema; [13])	erythema score, 4 hours (UV induced erythema; [14])	erythema score, 24 hours (UV induced erythema; [15])	erythema score, (After 4 hours) Total Points (UV induced erythema; [16])	erythema score, (After 24 hours) Total Points (UV induced erythema; [17])	pIC50 [3]
4.36	65.2 µM	CN(CCCC(=O)c1ccc(F)cc1)[C@H]1CC[C@](CO)(c2ccccc2)CC1 [F, Butyrophenone, 4'-fluoro-4-[[c-4-(hydroxy-methyl)-t-4-phenyl-r- -cyclohexyl]methyl-amino]-]	14	12	12	17	60	55	105	–	–	–	–	–	–	–	–
4.53	–	O=C(CCCN[C@H]1CC[C@](CO)(c2ccccc2)CC1)c1ccc(Cl)cc1 [E, Butyrophenone, 4'-chloro-4-[[c-4-(hydroxy-methyl)-4-phenyl-r-1-yclohexyl]amino]-, hydrochloride]	–	–	–	–	–	–	–	–	–	–	–	–	–	–	–
4.97	183 µM	CO[C@]1(c2ccccc2C)CC[C@H](NCCCC(=O)c2ccc(F)cc2)CC1 [B, Butyrophenone, 4'-fluoro-4-[(c-4-methoxy-4-o-tolylcyclohexyl)-amino]-, hydrochloride, hemihydrate]	3	5	5	2	36	15	51	8	7	6	13	33	34	66	–
5.29	–	O=C(CCCN[C@H]1CC[C@H](c2ccc(C(F)(F)F)cc2)CC1)c1ccc(F)cc1 [A, Butyrophenone, 4'-fluoro-4-[[4-(α,α,α-trifluoro-p-tolyl)-cyclohexyl]amino]-, trans-,]	–	–	–	–	–	–	–	–	–	–	–	–	–	–	–
